Results taken from ChEMBL document CHEMBL1128154, “16,19-cis-murisolin and murisolin a, two novel bioactive mono-tetrahydrofuran annonaceous acetogenins from Asimina triloba seeds” (Bioorg Med Chem Lett, 1995).
In brackets after ≈: the same amount, converted by molar mass.

How the values were obtained:
[1] = Lethality in Brine shrimp lethality test; details: artemia
MCF7 = test: Cytotoxicity against human breast carcinoma MCF-7 cell lines; format: functional; details: read-out: ED50 (the source's name)
MIA PaCa-2 = test: Cytotoxicity against human pancreatic carcinoma MIA PaCa-2 cell lines; format: functional; details: read-out: ED50 (the source's name)
PC-3 = test: Cytotoxicity against human prostate adenocarcinoma PC-3 cell lines; format: functional; details: read-out: ED50 (the source's name)
A498 = test: Cytotoxicity against human kidney carcinoma A-498cell lines; format: functional; details: read-out: ED50 (the source's name)
A549 = test: Cytotoxicity against human lung carcinoma A-549 cell lines; format: functional; details: read-out: ED50 (the source's name)
HT-29 = test: Cytotoxicity against human colon adenocarcinoma HT-29 cell lines; format: functional; details: read-out: ED50 (the source's name)

Row | SMILES | LC50 [1] [ng/mL] | EC50 (MCF7) [ng/mL] | EC50 (MIA PaCa-2) [ng/mL] | EC50 (PC-3) [ng/mL] | EC50 (A498) [ng/mL] | EC50 (A549) [ng/mL] | EC50 (HT-29) [ng/mL]
1 | CCCCCCCCCCCCC(O)[C@@H]1CC[C@H]([C@H](O)CCCCCCCCCCC(O)CC2=C[C@H](C)OC2=O)O1 (single isomer, unassigned) | 207 (≈ 356 nM) | 3150 (≈ 5420 nM) | 1.5 (≈ 2.58 nM) | 2360 (≈ 4060 nM) |  |  | 
2 | CCCCCCCCCCCCC(O)C1CC[C@H]([C@H](O)CCCCCCCCCCC(O)CC2=C[C@H](C)OC2=O)O1 (single isomer, unassigned) | 346 (≈ 596 nM) | 15.8 (≈ 27.2 nM) | 15.3 (≈ 26.3 nM) | 1420 (≈ 2440 nM) | 4160 (≈ 7160 nM) | 3.41 (≈ 5.87 nM) | 1270 (≈ 2190 nM)
3 | CCCCCCCCCCCCC(O)[C@H]1CC[C@H]([C@H](O)CCCCCCCCCCC(O)CC2=C[C@H](C)OC2=O)O1 (single isomer, unassigned) | 183 (≈ 315 nM) | 5400 (≈ 9300 nM) | 51.8 (≈ 89.2 nM) | 8410 (≈ 14500 nM) | 66.7 (≈ 115 nM) | 0.00316 (≈ 0.00544 nM) | 
4 | COc1cccc2c1C(=O)c1c(O)c3c(c(O)c1C2=O)C[C@@](O)(C(=O)CO)C[C@@H]3O[C@H]1C[C@H](N)[C@H](O)[C@H](C)O1 [DOXORUBICIN] |  | 420 (≈ 773 nM) | 1.36 (≈ 2.5 nM) | 34.9 (≈ 64.2 nM) | 2.26 (≈ 4.16 nM) | 3.99 (≈ 7.34 nM) | 24.3 (≈ 44.7 nM)
